Source: EPA's CvTdb concentration-time database

Legend:
[1] = test system: Rat; assay: concentration in plasma after dosing; conditions: dosed: Perfluorodecanoic acid, 2 mg/kg, iv, Male, F344
[2] = test system: Rat; assay: concentration in plasma after dosing; conditions: dosed: Perfluorodecanoic acid, 2 mg/kg, oral, Male, Harlan Sprague Dawley
[3] = test system: Rat; assay: concentration in plasma after dosing; conditions: dosed: Perfluorodecanoic acid, 2 mg/kg, iv, Male, F344; remark: listed apart in the source
[4] = test system: Rat; assay: concentration in plasma after dosing; conditions: 5 min; dosed: dichloroacetic acid; 10 mg/kg; iv; Male; F344
[5] = test system: Rat; assay: concentration in plasma after dosing; conditions: dosed: dichloroacetic acid, 40 mg/kg, oral, Female, Harlan Sprague Dawley
[6] = test system: Rat; assay: concentration in plasma after dosing; conditions: dosed: dichloroacetic acid, 100 mg/kg, oral, Male, F344
[7] = test system: Rat; assay: concentration in plasma after dosing; conditions: 18 h; dosed: Primidone; 30 mg/kg; oral; Female; F344
[8] = test system: Rat; assay: concentration in plasma after dosing; conditions: 30 h; dosed: Primidone; 130 mg/kg; oral; Male; F344
[9] = test system: Rat; assay: concentration in plasma after dosing; conditions: 3 h; dosed: Primidone; 80 mg/kg; oral; Male; F344
[10] = test system: Rat; assay: concentration in plasma after dosing; conditions: 0.5 h; dosed: Primidone; 130 mg/kg; oral; Female; F344
[11] = test system: Rat; assay: concentration in plasma after dosing; conditions: dosed: Wyeth-14643, 5.0 mg/kg, oral, Male, Sprague-Dawley
[12] = test system: Rat; assay: concentration in plasma after dosing; conditions: 1 h; dosed: Wyeth-14643; 2.0 mg/kg; iv; Male; Sprague-Dawley
[13] = test system: Rat; assay: concentration in kidney after dosing; conditions: 12 h; dosed: Fluorotelomer alcohol 8+2; 24 mg/kg; oral; Male; Harlan Sprague Dawley
[14] = test system: Rat; assay: concentration in plasma after dosing; conditions: dosed: Fluorotelomer alcohol 8+2, 40 mg/kg, iv, Male, F344
[15] = test system: Rat; assay: concentration in plasma after dosing; conditions: 4 h; dosed: Thiodiglycolic Acid; 20 mg/kg; iv; Female; Harlan Sprague Dawley
[16] = test system: Rat; assay: concentration in thymus after dosing; conditions: 8 h; dosed: Thiodiglycolic Acid; 20 mg/kg; iv; Female; Harlan Sprague Dawley
[17] = test system: Rat; assay: concentration in heart after dosing; conditions: 1 h; dosed: Thiodiglycolic Acid; 20 mg/kg; iv; Female; Harlan Sprague Dawley
[18] = test system: Rat; assay: concentration in liver after dosing; conditions: 2 h; dosed: Thiodiglycolic Acid; 20 mg/kg; iv; Female; Harlan Sprague Dawley
[19] = test system: Rat; assay: concentration in liver after dosing; conditions: 40 min; dosed: Thiodiglycolic Acid; 20 mg/kg; iv; Male; Harlan Sprague Dawley
[20] = test system: Rat; assay: concentration in liver after dosing; conditions: 3 h; dosed: Thiodiglycolic Acid; 20 mg/kg; iv; Female; Harlan Sprague Dawley
[21] = test system: Rat; assay: concentration in liver after dosing; conditions: 10 h; dosed: Thiodiglycolic Acid; 20 mg/kg; iv; Female; Harlan Sprague Dawley
[22] = test system: Rat; assay: concentration in heart after dosing; conditions: 2 h; dosed: Thiodiglycolic Acid; 20 mg/kg; iv; Female; Harlan Sprague Dawley
[23] = test system: Rat; assay: concentration in thymus after dosing; conditions: 4 h; dosed: Thiodiglycolic Acid; 20 mg/kg; iv; Male; Harlan Sprague Dawley
[24] = test system: Rat; assay: concentration in heart after dosing; conditions: 4 h; dosed: Thiodiglycolic Acid; 20 mg/kg; iv; Male; Harlan Sprague Dawley
[25] = test system: Rat; assay: concentration in liver after dosing; conditions: 3 h; dosed: Thiodiglycolic Acid; 20 mg/kg; iv; Male; Harlan Sprague Dawley
[26] = test system: Rat; assay: concentration in liver after dosing; conditions: 1 h; dosed: Bis 2-Chloroethoxy Methane; 20 mg/kg; iv; Female; F344
[27] = test system: Rat; assay: concentration in heart after dosing; conditions: 1 h; dosed: Bis 2-Chloroethoxy Methane; 20 mg/kg; iv; Male; F344
[28] = test system: Rat; assay: concentration in thymus after dosing; conditions: 10 min; dosed: Bis 2-Chloroethoxy Methane; 20 mg/kg; iv; Female; F344
[29] = test system: Rat; assay: concentration in thymus after dosing; conditions: 40 min; dosed: Bis 2-Chloroethoxy Methane; 20 mg/kg; iv; Female; F344
[30] = test system: Rat; assay: concentration in plasma after dosing; conditions: 4 h; dosed: Bis 2-Chloroethoxy Methane; 40 mg/kg; iv; Male; Harlan Sprague Dawley
[31] = test system: Rat; assay: concentration in heart after dosing; conditions: 3 h; dosed: Bis 2-Chloroethoxy Methane; 20 mg/kg; iv; Male; F344
[32] = test system: Rat; assay: concentration in thymus after dosing; conditions: 4 h; dosed: Bis 2-Chloroethoxy Methane; 20 mg/kg; iv; Female; F344
[33] = test system: Rat; assay: concentration in plasma after dosing; conditions: 4 h; dosed: Bis 2-Chloroethoxy Methane; 40 mg/kg; iv; Male; Harlan Sprague Dawley; remark: listed apart in the source
[34] = test system: Rat; assay: concentration in plasma after dosing; conditions: dosed: Bis 2-Chloroethoxy Methane, 40 mg/kg, iv, Male, Harlan Sprague Dawley
[35] = test system: Rat; assay: concentration in thymus after dosing; conditions: 40 min; dosed: Bis 2-Chloroethoxy Methane; 20 mg/kg; iv; Female; F344; remark: listed apart in the source
[36] = test system: Rat; assay: concentration in plasma after dosing; conditions: 1 h; dosed: Di-n-butyl phthalate; 20 mg/kg; iv; Male; Sprague-Dawley
[37] = test system: Rat; assay: concentration in plasma after dosing; conditions: 10 min; dosed: Di-n-butyl phthalate; 50 mg/kg; oral; Male; Sprague-Dawley
[38] = test system: Rat; assay: concentration in plasma after dosing; conditions: 20 min; dosed: Di-n-butyl phthalate; 20 mg/kg; iv; Male; Sprague-Dawley

Compound: O=C(O)C(F)(F)C(F)(F)C(F)(F)C(F)(F)C(F)(F)C(F)(F)C(F)(F)C(F)(F)C(F)(F)F [Perfluorodecanoic acid]
- concentration in plasma ([1]; 24 h): 5550 ng/mL
- concentration in plasma ([1]; 1848 h): 488 ng/mL
- concentration in plasma ([2]; 1 h): 4920 ng/mL
- concentration in plasma ([2]; 192 h): 5100 ng/mL
- concentration in plasma ([2]; 2520 h): 882 ng/mL
- concentration in plasma ([3]; 1 h): 6390 ng/mL
- concentration in plasma ([3]; 528 h): 2520 ng/mL
- concentration in plasma ([3]; 3360 h): 267 ng/mL

Compound: O=C(O)C(Cl)Cl [dichloroacetic acid]
- concentration in plasma [4]: 15100 ng/mL
- concentration in plasma ([5]; 5 min): 5140 ng/mL
- concentration in plasma ([5]; 1.25 h): 4620 ng/mL
- concentration in plasma ([6]; 2 min): 2970 ng/mL
- concentration in plasma ([6]; 1.25 h): 54200 ng/mL

Compound: CCC1(c2ccccc2)C(=O)NC(=O)NC1=O [Phenobarbital]
- concentration in plasma [7]: 1060 ng/mL
- concentration in plasma [8]: 1780 ng/mL
- concentration in plasma [9]: 5240 ng/mL
- concentration in plasma [10]: 1140 ng/mL

Compound: Cc1cccc(Nc2cc(Cl)nc(SCC(=O)O)n2)c1C
- concentration in plasma ([11]; 5 min): 572 ng/mL
- concentration in plasma ([11]; 8 h): 255 ng/mL
- concentration in plasma [12]: 2380 ng/mL

Compound: OCCC(F)(F)C(F)(F)C(F)(F)C(F)(F)C(F)(F)C(F)(F)C(F)(F)C(F)(F)F [Fluorotelomer alcohol 8+2]
- concentration in kidney [13]: 187 ng/g
- concentration in plasma ([14]; 0.25 h): 14200 ng/mL
- concentration in plasma ([14]; 6 h): 186 ng/mL

Compound: O=C(O)CSCC(=O)O [Thiodiglycolic Acid]
- concentration in plasma [15]: 360 ng/mL
- concentration in thymus [16]: 544 ng/g
- concentration in heart [17]: 2560 ng/g
- concentration in liver [18]: 25500 ng/g
- concentration in liver [19]: 183000 ng/g
- concentration in liver [20]: 11500 ng/g
- concentration in liver [21]: 4910 ng/g
- concentration in heart [22]: 1420 ng/g
- concentration in thymus [23]: 1490 ng/g
- concentration in heart [24]: 989 ng/g
- concentration in liver [25]: 59900 ng/g

Compound: ClCCOCOCCCl [Bis 2-Chloroethoxy Methane]
- concentration in liver [26]: 343 ng/g
- concentration in heart [27]: 2450 ng/g
- concentration in thymus [28]: 44200 ng/g
- concentration in thymus [29]: 4150 ng/g
- concentration in plasma [30]: 238 ng/mL
- concentration in heart [31]: 179 ng/g
- concentration in thymus [32]: 76.5 ng/g
- concentration in plasma [33]: 162 ng/mL
- concentration in plasma ([34]; 40 min): 6610 ng/mL
- concentration in plasma ([34]; 8 h): 15.5 ng/mL
- concentration in thymus [35]: 6590 ng/g

Compound: CCCCOC(=O)c1ccccc1C(=O)O [Mono-n-butyl phthalate]
- concentration in plasma [36]: 3480 ng/mL
- concentration in plasma [37]: 26100 ng/mL
- concentration in plasma [38]: 21800 ng/mL
